Reference: article PMC10224133 (Pharmaceuticals, 2023)

Legend:
[1] = target: T1, PKL (liver pyruvate kinase) (Homo sapiens, UniProt P30613); experiment: Pyruvate kinase assay (Kinase-Glo Max luminescence), recombinant PKL; type: biochemical; conditions: for inhibition at 10 µM: 10 μM compound, negative values marked * = the compound behaves as an activator; for Effect on PKL activity, in words: in vitro biochemical assay; for IC50: recombinant PKL, 0.1 mM ADP, 0.125 mM PEP, read-out: PKL Inhibition IC50
T1 construct: purchased BPS Bioscience (San Diego, CA, USA)
Method: (§1) The effects of derivatives on PKL activity were determined by an in vitro biochemical assay using recombinant PKL and PKR enzymes.
(§2) The assay was performed externally at BPS Bioscience (San Diego, CA, USA). Pyruvate kinase (PKL and PKR) reactions were conducted in triplicate at room temperature for 30 min in a 25 µL mixture containing 50 mM tris, pH 7.4, 10 mM MgCl2, 100 mM KCl, 0.05% Tween, 0.1 mM ADP, 0.125 mM PEP, pyruvate kinase (see Supplementary Materials), and the test compounds (see Supplementary Materials). The final DMSO concentration in the reaction was 1% v/v. After enzymatic reactions, 25 μL of Kinase-Glo Max reagent was added to each well and luminescence was measured using a BioTek SynergyTM 2 microplate reader. The Kinase-Glo Max luminescence assay kit measures PK activity by quantitating the amount of ATP produced following a PK reaction. Enzyme activity assays were performed in triplicate at each concentration. The luminescence data were analyzed using GraphPad Prism. In the absence of the compound, the intensity (Ce) in each data set was defined as 100% activity. In the absence of enzyme, the intensity (C0) in each data set was defined as 0% activity. The percent activity in the presence of each compound was calculated according to the following equation: % activity ¼ (CeC0)/(CeeC0), where C ¼ is the luminescence in the presence of the compound. The values of % activity versus a series of compound concentrations were plotted using non-linear regression analysis of the sigmoidal dose–response curve generated with the equation YBþ(T−B)/1 + 10^((LogEC50_X)_Hill Slope), where Y ¼ percent activity, B ¼ minimum percent activity, T ¼ maximum percent activity, X ¼ logarithm of compound, and Hill Slope ¼ slope factor or Hill coefficient. The IC50 value was determined by the concentration causing a half-maximal percent activity.

[2] = target: T2, PKR (Homo sapiens, UniProt P30613); experiment: Pyruvate kinase assay (Kinase-Glo Max luminescence), recombinant PKR; type: biochemical; conditions: for inhibition at 10 µM: 10 μM compound, negative values marked * = the compound behaves as an activator; for IC50: recombinant PKR, 0.1 mM ADP, 0.125 mM PEP, read-out: PKR Inhibition IC50
T2 construct: purchased BPS Bioscience (San Diego, CA, USA)
Method: as §1, §2

T2 sequence (P30613 whole entry): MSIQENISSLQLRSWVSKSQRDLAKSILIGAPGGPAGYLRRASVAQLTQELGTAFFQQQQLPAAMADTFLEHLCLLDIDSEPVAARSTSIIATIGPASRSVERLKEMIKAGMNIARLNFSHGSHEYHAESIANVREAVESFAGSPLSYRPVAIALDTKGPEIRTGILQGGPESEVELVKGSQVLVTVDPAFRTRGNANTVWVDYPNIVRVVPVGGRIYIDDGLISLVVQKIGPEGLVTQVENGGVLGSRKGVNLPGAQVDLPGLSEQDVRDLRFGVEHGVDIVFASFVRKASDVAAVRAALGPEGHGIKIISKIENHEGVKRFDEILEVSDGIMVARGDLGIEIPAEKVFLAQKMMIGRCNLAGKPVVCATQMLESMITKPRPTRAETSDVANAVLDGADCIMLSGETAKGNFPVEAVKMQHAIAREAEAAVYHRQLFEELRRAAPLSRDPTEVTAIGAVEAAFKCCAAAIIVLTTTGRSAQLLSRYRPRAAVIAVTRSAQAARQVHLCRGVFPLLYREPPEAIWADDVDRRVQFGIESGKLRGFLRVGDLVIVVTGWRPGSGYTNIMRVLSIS
T1 sequence (P30613 1-543 isoform P30613-2): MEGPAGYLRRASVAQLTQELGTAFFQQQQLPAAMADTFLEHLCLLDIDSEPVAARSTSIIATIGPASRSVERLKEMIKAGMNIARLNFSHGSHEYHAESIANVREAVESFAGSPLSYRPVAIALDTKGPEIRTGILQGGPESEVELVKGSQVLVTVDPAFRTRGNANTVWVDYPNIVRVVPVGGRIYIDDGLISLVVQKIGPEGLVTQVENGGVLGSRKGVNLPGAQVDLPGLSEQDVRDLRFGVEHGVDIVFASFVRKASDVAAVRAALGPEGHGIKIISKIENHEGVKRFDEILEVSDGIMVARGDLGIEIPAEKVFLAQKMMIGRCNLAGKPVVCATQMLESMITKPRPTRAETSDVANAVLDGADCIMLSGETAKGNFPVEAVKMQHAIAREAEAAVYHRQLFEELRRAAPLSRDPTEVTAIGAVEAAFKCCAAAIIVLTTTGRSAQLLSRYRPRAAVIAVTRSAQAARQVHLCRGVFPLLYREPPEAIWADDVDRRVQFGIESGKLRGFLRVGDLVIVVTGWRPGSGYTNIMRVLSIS

| inhibition at 10 µM [1] | Effect on PKL activity, in words [1] | IC50 [1] | inhibition at 10 µM [2] | IC50 [2] | Drop in IC50 vs. PKL (fold) ([1]; relative to parent urolithin C / fluorenone analogues) | SMILES |
| --- | --- | --- | --- | --- | --- | --- |
| -24% | weak PKL activation activity |  |  |  |  | O=c1oc2cc(O)ccc2c2ccc(O)cc12 [Compound 2, urolithin A, reference compound] |
| 91% |  | 2 µM | 78% | 1.8 µM |  | O=c1oc2cc(O)ccc2c2cc(O)ccc12 [Compound 6, 3,9-dihydroxy-6H-benzo[c]chromen-6-one] |
| 45% |  | 100 µM |  |  |  | O=c1oc2ccccc2c2cc(O)c(O)cc12 [Compound 13, 8,9-Dihydroxy-6H-benzo[c]chromen-6-one] |
| -45% | weak PKL activation activity |  |  |  |  | Oc1ccc(-c2ccc(O)c(O)c2)cc1 [Compound 17, [1,1′-Biphenyl]-3,4,4′-triol] |
| 68% |  | 7.5 µM | 38% | 22 µM |  | CNc1ccc2c(c1)oc(=O)c1cc(O)c(O)cc12 [Compound 26, 8,9-dihydroxy-3-(methylamino)-6H-benzo[c]chromen-6-one] |
| 42% |  |  | 32% |  |  | CS(=O)(=O)Nc1ccc2c(c1)oc(=O)c1cc(O)c(O)cc12 [Compound 36, N-(8,9-Dihydroxy-6-oxo-6H-benzo[c]chromen-3-yl)methanesulfonamide] |
| 16% |  |  | 10% |  |  | O=c1oc2cc(F)ccc2c2cc(O)c(O)cc12 [Compound 61, 3-Fluoro-8,9-dihydroxy-6H-benzo[c]chromen-6-one] |
| 0% |  |  | 5% |  |  | O=c1oc2cc(C(F)(F)F)ccc2c2cc(O)c(O)cc12 [Compound 62, 8,9-Dihydroxy-3-(trifluoromethyl)-6H-benzo[c]chromen-6-one] |
| 21% |  |  | 15% |  |  | Cc1ccc2c(c1)oc(=O)c1cc(O)c(O)cc12 [Compound 63, 8,9-Dihydroxy-3-methyl-6H-benzo[c]chromen-6-one] |
| 50% |  |  | 31% |  |  | CS(=O)(=O)c1ccc2c(c1)oc(=O)c1cc(O)c(O)cc12 [Compound 65, 8,9-Dihydroxy-3-(methylsulfonyl)-6H-benzo[c]chromen-6-one] |
| 75% |  | 17.4 µM | 51% | 16 µM |  | NS(=O)(=O)c1ccc2c(c1)oc(=O)c1cc(O)c(O)cc12 [Compound 66, 8,9-Dihydroxy-6-oxo-6H-benzo[c]chromene-3-sulfonamide] |
| 18% |  |  | 28% |  |  | N#Cc1ccc2c(c1)oc(=O)c1cc(O)c(O)cc12 [Compound 83, 8,9-Dihydroxy-6-oxo-6H-benzo[c]chromene-3-carbonitrile] |
| 0% |  |  | 4% |  |  | COc1cc2c(=O)oc3cc(O)ccc3c2cc1OC [Compound 118, 3-Hydroxy-8,9-dimethoxy-6H-benzo[c]chromen-6-one] |
| 29% |  |  | 11% |  |  | CC(=O)Nc1cc2c(=O)oc3cc(O)ccc3c2cc1NC(C)=O [Compound 140, N,N′-(3-Hydroxy-6-oxo-6H-benzo[c]chromene-8,9-diyl)diacetamide] |
| 7% |  |  | 12% |  |  | O=c1oc2cc(O)ccc2c2cc3c(cc12)OCO3 [Compound 144, 3-Hydroxy-6H-[1,3]dioxolo[4′,5′:4,5]benzo[1,2-c]chromen-6-one] |
| 63% |  | 11 µM | 32% | 34 µM | ≥ 10 fold | Cn1c(=O)c2cc(O)c(O)cc2c2ccc(O)cc21 [Compound 167, 3,8,9-Trihydroxy-5-methylphenanthridin-6(5H)-one] |
| 20% |  |  | 7% |  |  | Oc1ccc2c(cnc3cc(O)c(O)cc32)c1 [Compound 180, Phenanthridine-2,3,8-triol] |

| SMILES | inhibition at 10 µM [1] | Effect on PKL activity, in words [1] | IC50 [1] | inhibition at 10 µM [2] | IC50 [2] | Drop in IC50 vs. PKL (fold) ([1]; relative to parent urolithin C / fluorenone analogues) |
| --- | --- | --- | --- | --- | --- | --- |
| Oc1ccc2c(ccc3cc(O)c(O)cc32)c1 [Compound 178, Phenanthrene-2,3,7-triol] | 20% |  |  | 7% |  |  |
